# Tested on: IgE antibody present in the serum of a patient (latex-allergic)
# Test: Latex epitope mapping (2) overlapping 10-residue peptides and (3) alanine/glycine scanning on peptide arrays
# Assay type: binding, human
# Protocol: On the basis of the sequences (SEQ ID NOs: 5, 25, 35, 68 and 83) of the peptides bound to an IgE antibody in serum in a patient-specific manner as described above in (A), a library of overlapping peptide fragments (length: 10 amino acids) was prepared using the sequences of the peptides and sequences in which sequences were added so as to flank each peptide in the amino acid sequences of allergy components comprising the sequences of the peptide. Epitope mapping was carried out using the library.
# The peptides to be synthesized were shifted by one amino acid.
# The library was prepared by the same procedure as described above in (A), and the presence or absence of binding of an IgE antibody present in the serum of a patient to each peptide fragment was measured by the same technique as described above. Numeric values determined from images obtained as a result of carrying out only the procedures (1) and (4) to (6) described above in the subsection titled (3) Spotting of cellulose-bound peptide solution were used as control values. The control value of each peptide was subtracted from numeric values determined from images obtained from results about the serum of patients, and the obtained value of the difference was compared with values of the peptides serving as the basis of overlapping.
# Chemiluminescence intensity in images obtained by measurement was converted into a numeric value in the same manner as in (A). Numeric values determined from images obtained as a result of carrying out only the procedures (1) and (4) to (6) described above in the subsection titled (3) Spotting of cellulose-bound peptide solution (secondary antibody measurement values) were used as control values. The control value of each peptide was subtracted from numeric values determined from images obtained from results about the serum of patients. When values obtained using the sequences (SEQ ID NOs: 5, 25, 35, 68 and 83) serving as the basis of overlapping were defined as 100%, it was determined that: a peptide having a value of the difference that was less than 30% had no binding activity against IgE antibodies; a peptide having a value of the difference that was 30% or more and less than 50% had binding activity, albeit poor, against IgE antibodies; a peptide having a value of the difference that was 50% or more and less than 70% had binding activity, albeit somewhat poor, against IgE antibodies; and a peptide having a value of the difference that was 70% or more had equivalent or good binding activity against IgE antibodies and was thus a peptide had remaining binding activity against IgE antibodies.
# From the amino acid sequences identified above in (A), a library of peptide fragments in which amino-terminal amino acids were substituted one by one by alanine (or glycine when the original amino acid was alanine) according to a technique called alanine/glycine scanning (Non Patent Literature 5) was prepared by the same technique as described above. The presence or absence of binding of an IgE antibody present in the serum of a patient to each peptide fragment was measured by the same technique as described above.
# Chemiluminescence intensity in images obtained by measurement was converted into a numeric value in the same manner as in (A). Numeric values determined from images obtained from secondary antibody measurement values were used as control values. The control value of each peptide was subtracted from numeric values determined from images obtained from results about the serum of 17 patients (patient Nos. P1-P17). […]
# [1] = serum of latex-allergic patient P1
# [2] = serum of latex-allergic patient P2
# [3] = serum of latex-allergic patient P6
# [4] = serum of latex-allergic patient P7
# [5] = serum of latex-allergic patient P8
# [6] = serum of latex-allergic patient P9
# [7] = serum of latex-allergic patient P12
# [8] = serum of latex-allergic patient P13
# [9] = serum of latex-allergic patient P17
# [10] = serum of latex-allergic patient P15
# [11] = serum of latex-allergic patient P3
# [12] = serum of latex-allergic patient P4
# [13] = serum of latex-allergic patient P5
substance,measurement,setting,value
6 (QKPY; epitope) [compound 6],epitope sequence grade for binding to IgE antibody,[1],Key
7 (DNFVIQKPYD; epitope) [compound 7],epitope sequence grade for binding to IgE antibody,[2],Preferably
9 (EDNFVIQKPY; epitope) [compound 9],epitope sequence grade for binding to IgE antibody,[3],More preferably
10 (QKPYDK; epitope) [compound 10],epitope sequence grade for binding to IgE antibody,[3],Preferably
11 (QKPY; epitope) [compound 11],epitope sequence grade for binding to IgE antibody,[3],Key
12 (QKPYD; epitope) [compound 12],epitope sequence grade for binding to IgE antibody,[4],Preferably
13 (QKPY; epitope) [compound 13],epitope sequence grade for binding to IgE antibody,[4],Key
14 (QKPYDK; epitope) [compound 14],epitope sequence grade for binding to IgE antibody,[5],Preferably
15 (QKPYD; epitope) [compound 15],epitope sequence grade for binding to IgE antibody,[5],Key
16 (QKPYDK; epitope) [compound 16],epitope sequence grade for binding to IgE antibody,[6],Key
17 (EDNFVIQKPY; epitope) [compound 17],epitope sequence grade for binding to IgE antibody,[7],More preferably
18 (QKPYDK; epitope) [compound 18],epitope sequence grade for binding to IgE antibody,[7],Preferably
19 (QKPY; epitope) [compound 19],epitope sequence grade for binding to IgE antibody,[7],Key
20 (QKPYDK; epitope) [compound 20],epitope sequence grade for binding to IgE antibody,[8],Key
21 (FVIQKPYD; epitope) [compound 21],epitope sequence grade for binding to IgE antibody,[9],Further preferably
22 (QKPYDKPLN; epitope) [compound 22],epitope sequence grade for binding to IgE antibody,[9],More preferably
23 (QKPYD; epitope) [compound 23],epitope sequence grade for binding to IgE antibody,[9],Preferably
24 (QKPY; epitope) [compound 24],epitope sequence grade for binding to IgE antibody,[9],Key
26 (DKPLN; epitope) [compound 26],epitope sequence grade for binding to IgE antibody,[2],Key
27 (KPYDKP; epitope) [compound 27],epitope sequence grade for binding to IgE antibody,[3],Key
28 (KPLNDRYS; epitope) [compound 28],epitope sequence grade for binding to IgE antibody,[3],Key
29 (DKPLNDR; epitope) [compound 29],epitope sequence grade for binding to IgE antibody,[6],Key
30 (KPLN; epitope) [compound 30],epitope sequence grade for binding to IgE antibody,[8],Key
31 (DKPLND; epitope) [compound 31],epitope sequence grade for binding to IgE antibody,[10],Preferably
32 (KPLN; epitope) [compound 32],epitope sequence grade for binding to IgE antibody,[10],Key
33 (KPYDKPLNDR; epitope) [compound 33],epitope sequence grade for binding to IgE antibody,[9],Preferably
34 (DKPLNDRYS; epitope) [compound 34],epitope sequence grade for binding to IgE antibody,[9],Key
36 (LKSYKSNSVA; epitope) [compound 36],epitope sequence grade for binding to IgE antibody,[11],Most preferably
37 (SYKSNSVATD; epitope) [compound 37],epitope sequence grade for binding to IgE antibody,[11],Further preferably
38 (SYKSNSVA; epitope) [compound 38],epitope sequence grade for binding to IgE antibody,[11],More preferably
39 (SYKSNSV; epitope) [compound 39],epitope sequence grade for binding to IgE antibody,[11],Preferably
41 (SYKSNSV; epitope) [compound 41],epitope sequence grade for binding to IgE antibody,[12],More preferably
44 (SYKSNS; epitope) [compound 44],epitope sequence grade for binding to IgE antibody,[13],Preferably
46 (LKSYKSNSVA; epitope) [compound 46],epitope sequence grade for binding to IgE antibody,[5],Preferably
47 (LKSYKSNSV; epitope) [compound 47],epitope sequence grade for binding to IgE antibody,[5],Key
48 (KSNSVATDI; epitope) [compound 48],epitope sequence grade for binding to IgE antibody,[5],Further preferably
49 (KSNSVATD; epitope) [compound 49],epitope sequence grade for binding to IgE antibody,[5],More preferably
52 (LKSYK; epitope) [compound 52],epitope sequence grade for binding to IgE antibody,[6],Key
53 (KSNSVATDIY; epitope) [compound 53],epitope sequence grade for binding to IgE antibody,[6],Further preferably
57 (LKSYKSNSVA; epitope) [compound 57],epitope sequence grade for binding to IgE antibody,[7],Most preferably
58 (SYKSNSVATD; epitope) [compound 58],epitope sequence grade for binding to IgE antibody,[7],Still further preferably
59 (SYKSNSVA; epitope) [compound 59],epitope sequence grade for binding to IgE antibody,[7],Further preferably
63 (VATDIY; epitope) [compound 63],epitope sequence grade for binding to IgE antibody,[7],More preferably
66 (SYKSNS; epitope) [compound 66],epitope sequence grade for binding to IgE antibody,[8],Key
67 (KSNSV; epitope) [compound 67],epitope sequence grade for binding to IgE antibody,[9],Key
69 (HKVGKGEI; epitope) [compound 69],epitope sequence grade for binding to IgE antibody,[1],Preferably
70 (HKVGKG; epitope) [compound 70],epitope sequence grade for binding to IgE antibody,[1],Key
71 (VNVIHKVGKG; epitope) [compound 71],epitope sequence grade for binding to IgE antibody,[13],More preferably
74 (VIHKVGKGEI; epitope) [compound 74],epitope sequence grade for binding to IgE antibody,[13],Further preferably
75 (HKVGKGEI; epitope) [compound 75],epitope sequence grade for binding to IgE antibody,[13],More preferably
78 (KVGK; epitope) [compound 78],epitope sequence grade for binding to IgE antibody,[4],Key
79 (KVGK; epitope) [compound 79],epitope sequence grade for binding to IgE antibody,[6],Key
80 (KVGKGEITVF; epitope) [compound 80],epitope sequence grade for binding to IgE antibody,[9],More preferably
84 (SKFYDDKNG; epitope) [compound 84],epitope sequence grade for binding to IgE antibody,[1],More preferably
85 (SKFYDDKN; epitope) [compound 85],epitope sequence grade for binding to IgE antibody,[1],Preferably
87 (YDDKNGYSSS; epitope) [compound 87],epitope sequence grade for binding to IgE antibody,[1],Further preferably
88 (DDKNGYSSS; epitope) [compound 88],epitope sequence grade for binding to IgE antibody,[1],More preferably
91 (WSKFYDDK; epitope) [compound 91],epitope sequence grade for binding to IgE antibody,[2],Further preferably
92 (KFYDDKNGYS; epitope) [compound 92],epitope sequence grade for binding to IgE antibody,[2],More preferably
93 (KFYDDK; epitope) [compound 93],epitope sequence grade for binding to IgE antibody,[2],Preferably
95 (DDKNGYSSS; epitope) [compound 95],epitope sequence grade for binding to IgE antibody,[2],More preferably
98 (WSKFYDDK; epitope) [compound 98],epitope sequence grade for binding to IgE antibody,[12],More preferably
99 (KFYDDKNGYS; epiotope) [compound 99],epitope sequence grade for binding to IgE antibody,[12],Preferably
100 (KFYDDK; epitope) [compound 100],epitope sequence grade for binding to IgE antibody,[12],Key
101 (DKNGYSSS; epitope) [compound 101],epitope sequence grade for binding to IgE antibody,[12],More preferably
104 (WSKFYDDK; epitope) [compound 104],epitope sequence grade for binding to IgE antibody,[13],More preferably
105 (SKFYDDK; epitope) [compound 105],epitope sequence grade for binding to IgE antibody,[13],Preferably
106 (KFYDDK; epitope) [compound 106],epitope sequence grade for binding to IgE antibody,[13],Key
107 (YDDKNGYSSS; epitope) [compound 107],epitope sequence grade for binding to IgE antibody,[13],Preferably
109 (WSKFYDDK; epitope) [compound 109],epitope sequence grade for binding to IgE antibody,[4],Key
110 (YDDKNGYSSS; epitope) [compound 110],epitope sequence grade for binding to IgE antibody,[4],Preferably
112 (WSKFYDDKNG; epitope) [compound 112],epitope sequence grade for binding to IgE antibody,[7],More preferably
113 (WSKFYDDKN; epitope) [compound 113],epitope sequence grade for binding to IgE antibody,[7],Preferably
114 (KFYDDK; epitope) [compound 114],epitope sequence grade for binding to IgE antibody,[7],Key
115 (WSKFYDDKN; epitope) [compound 115],epitope sequence grade for binding to IgE antibody,[9],More preferably
116 (WSKFYD; epitope) [compound 116],epitope sequence grade for binding to IgE antibody,[9],Preferably
